# How the values were obtained:
# RBCs = experiment: Volatile collection (SPME) and GC-MS analysis of RBC headspace; type: cell-based, Human; details: 10 μM HMBPP, FIGS. 2C and D
# Method: RBCs (1 ml) were transferred to 4 ml glass vials closed with auto-sampler screw caps, and equilibrated in a thermostat at 38° C. for 15 min. Then, 2.5 μl of HMBPP or Nanopure water were added to the RBCs samples (final concentration: 10 μM HMBPP per sample). Volatiles were collected from the headspace using solid phase micro-extraction (SPME; Supelco, Bellmonte, Pa., USA) (M. J. Yang, el al., J. Chem. Educ., 74, 1130-1132 (1997) and A. K. Borg-Karlson and R. Mozuraitis, Naturforsch., C. 51, 599-602 (1996)). […] Electron ionisation mass spectra were determined at 70 eV with the ion source kept at 230° C. and mass spectra were obtained at mass to charge ratio (m/z) 29-400. […] A similar protocol was used for the quantification of CO2, with the mass spectral data and GC retention times being compared with emission from frozen CO2. The relative amounts of CO2 in arbitrary units were determined from the areas of the respective chromatogram peaks using single ion display mode at m/z 44±0.5 Da. The amounts of identified compounds were quantified by the use of extracted ion chromatograms, since they are very minute. […] The estimations were based on the very same quantifications given in ‘arbitrary area units’. […]
# [1] = test system: Plasmodium falciparum (NF54 strain); experiment: Mosquito infectious feed (P. falciparum oocyst and sporozoite infection in mosquitoes); type: in vivo
# Method: A strain of the human malaria parasite P. falciparum, denoted NF54 (T. Ponnudurai, et al., Trop Geogr Med, 33, 50-54 (1981); kindly donated by Klays Berzins, Stockholm University), known to produce gametocytes infectious to mosquitoes (D. Walliker, paper presented at the Symposia on Molecular and Cellular Biology New Series 42, UCLA (1987)), was used for all experimental infections. Parasites were cultured in vitro according to standard protocols (W. Trager and J. B. Jensen, Science, 193, 673-675 (1976)) at 5% haematocrit in complete RPMI-1640 medium with 10% human serum under a gas environment of 1% O2, 3% CO2 and 96% N2 (Labline, Goteborg, Sweden). The culture medium was replaced daily and parasitaemia assessed using Giemsa staining every two days (ibid.). When the parasitaemia reached ˜6% (approximately 2 days after initiating the culture), cultures were diluted with a freshly made 5% haematocrit mixture of RBCs/complete medium. Asexual, synchronised trophozoites were fed to mosquitoes at 5% parasitaemia.
# Plasmodium falciparum gametocyte cultures (NF54 strain) were set up at 0.5-0.7% parasitaemia, 6% haematocrit in complete RPMI medium, according to standard procedures (R. Carter, et al. Methods Mol Biol, 21, 67-88 (1993)). For each infectious feeding, a mixture of gametocytes from 14- and 17-day gametocyte cultures were used (ibid.). On the day of experimental infection, uninfected RBCs were supplemented with P. falciparum gametocytes to a final gametocytaemia of approximately 3%, which is known to generate good infection prevalence (>50% in A. gambiae s.s. mosquitoes; ibid.). To measure the effect of HMBPP on parasite infectiousness, two groups of approximately 210 mosquitoes were fed on mature gametocyte-infected red blood cells (giRBCs) with or without HMBPP using a membrane feeder, as previously described (ibid.). Gametocyte density was kept equal in control and treatments. To give the final gametocytaemia of 3% in each tubes, on the day of feed, the final mature gametocytaemia was calculated in cultures and then the volume of gametocyte inoculum was estimated per 1 ml of blood. The gametocyte inoculum was prepared using an equal volume (˜400 μl) of the gametocyte mixture was added to 1 ml of each of the blood treatments (with/without HMBPP). Adding a fixed volume of well-mixed gametocyte culture to a fixed volume of each blood treatment, it was ensured that parasite density (no. gametocytes per ml) was constant in both groups.
smiles,measurement,setting,value
"C/C(=C\COP(=O)(O)OP(=O)(O)O)CO [HMBPP, (E)-4-hydroxy-3-methyl-but-2-enyl pyrophosphate]",increase in aldehydes (C8-C10:al) in headspace of hRBCs compared to RBCs,RBCs,1.7-to-5.2 fold
same,"increase in monoterpenes (α- and ß-pinene, limonene) in headspace of hRBCs compared to RBCs",RBCs,1.2-to-1.6 fold
same,oocyst prevalence (proportion of oocyst-carrying mosquitoes),"[1]; giRBCs with additional HMBPP, gametocyte density 3%",~100%
same,sporozoite intensity (number of sporozoites per salivary gland),[1]; giRBCs with vs without HMBPP,significantly higher
same,oocyst intensity (number of oocyst per midgut),"[1]; giRBCs with vs without HMBPP, 10 dpi, FIG. 3D",higher
same,sporozoite prevalence (proportion of sporozoite-carrying mosquitoes),"[1]; giRBCs with vs without HMBPP, 14 dpi, FIG. 3E",significantly higher
same,"oocyst prevalence, difference between treatments",[1]; giRBCs with vs without additional HMBPP,not significantly different

# Reference: patent publication US11638424B2, “Mosquito attractant formulations and uses thereof” (priority 2017, dated 2023)
